In patent US20110166030A1, “Prediction of response to docetaxel therapy based on the presence of TMPRSSG2:ERG fusion in circulating tumor cells” (priority 2009, published 2011):

Experiments:
[1] = system: castration resistant prostate cancer (CRPC); assay: CEC, CTC, ET-1 and TF levels during docetaxel treatment of CRPC patients; assay type: in vivo, human
Procedure: Blood samples were collected from 231 patients with CRPC by venesection into 2×10 mL CellSave tubes (Veridex, LLC, Raritan, N.J.) and 1×6 mL serum tube in a multi-center prospective study. One CellSave tube was used to determine the number of CTC for prediction of OS. Results on CTC levels measured in this group have been previously published. The second collected CellSave tube was used to determine CEC numbers.
In order to assess a homogenous group of patients with respect to systemic therapy, we selected all who were scheduled to receive docetaxel or a docetaxel containing regimen (n=162) from the 231 patients. Treatment was continued until progression or unacceptable toxicity. Main eligibility criteria included age ≧18 years, pathological diagnosis of adenocarcinoma of the prostate, first or later line of chemotherapy, serum testosterone <1.7 nmol/L ([…]), Eastern Cooperative Oncology Group (ECOG) performance status 0-2, pretreatment serum PSA≧5 ng/mL, PSA progression (rises above a reference value) despite androgen deprivation therapy, and ability to sign informed consent. This study was approved by the local Institutional Medical Ethical Review Boards and is in agreement with the Helsinki declaration of 2000. Written informed consent was obtained from all patients prior to participation.
CEC and CTC counts were determined prior to initiation of chemotherapy and after 2-5 weeks (first follow-up draw) and 6-8 weeks (second follow-up draw) of treatment. Serum concentrations of ET-1 and TF were also determined at these same time points.
The CellTracks® AutoPrep® and CellTracks Analyzer II® Systems (both Veridex, LLC, Raritan, N.J.) were used to count CTC and CEC. CTC were defined as intact cells positive for the nuclear stain 4′ 6-diamidinophenylindole (DAPI), the epithelial cell adhesion molecule (EpCAM), and for cytokeratins 8, 18 and 19 that also lacked expression of the panleukocyte marker CD45. CEC were identified as intact cells positive for DAPI, CD146 and CD105 that also lacked expression of CD45.
The technical details of both assays have been published previously. […]
Serum concentrations (pg/mL) of ET-1 and TF-1 were determined by ELISA. […] Absorbance was read at 450 nm using a Titertek 212 MS microplate reader (Titertek, Huntsville, Ala.). […]
Longitudinal biomarker data were analyzed using a random effects linear regression model using the maximum likelihood random effects estimator (the “xtreg, mle” command in STATA). […] To determine a cutoff value for survival analysis of CEC numbers and serum concentrations of ET-1 and TF, patient data were first stratified according percentiles (p0-p25; p25-p50, p50-p75, and p75-p100), in which either their baseline value or the change between baseline values and those determined at 2-5 weeks would fall. […]

[2] = system: metastatic prostate cancer; assay: Response to therapy in metastatic androgen-independent prostate cancer patients (reduction in PSA levels); assay type: in vivo, human
Excerpt: Thus, disclosed herein is a method of expression profiling of gene of interest in CTCs using real time quantitative RT-PCR. Briefly, in a proof of concept, in total RNA isolated from circulating tumor cells of each of 40 metastatic prostate cancer patients gene expression profiles of 14 candidate genes were investigated by real time quantitative RT-PCR. […] Based on this application of RT-PCR based detection of the TMPRSS2-ERG fusion gene expression, patients are stratified for effective treatment with docetaxel chemotherapy, with an overall improvement in disease outcome and quality of life with very high specificity.
Briefly, the 40 subjects were recruited from the Cedars-Sinai Medical Center in Los Angeles. Appropriate IRB approvals were obtained prior to patient sample collection. The inclusion criteria consisted of: patient must be at least 18 years old and with clinical diagnosis of Stage IV (metastatic) prostate cancer; patients must provide written consent/authorization to participate in this study, no signs or symptoms of active infection, willing and able to comply with procedures required in this protocol.
All patients were receiving treatments at Cedars-Sinai Medical Center at Los Angeles and all have metastatic prostate cancers. […]

SMILES: CC(=O)O[C@@]12CO[C@@H]1C[C@H](O)[C@@]1(C)C(=O)[C@H](O)C3=C(C)[C@@H](OC(=O)[C@H](O)[C@@H](NC(=O)OC(C)(C)C)c4ccccc4)C[C@@](O)([C@@H](OC(=O)c4ccccc4)[C@H]21)C3(C)C [Docetaxel]
- Change in CTC numbers ([1]; after 2-5 weeks of treatment, cells/7.5 mL blood): decreased significantly
- Change in serum TF ([1]; after 6-8 weeks of therapy vs baseline and first follow-up draw, ELISA): significant decrease
- Serum concentrations of ET-1 during treatment ([1]; baseline, 2-5 and 6-8 weeks, ELISA): remained constant
- Change in CEC numbers vs baseline ([1]; first follow-up draw, 2-5 weeks after initiation of docetaxel, cells/4.0 mL blood): significant increase
- Response to treatment, Number of Patients ([2]; 40 metastatic prostate cancer patients, Tax 14 patients, Tax + RAD 11 patients treated): 7
- Patients with T1E4 or T2E4 fusion gene expression in CTCs who responded to the therapy ([2]; five fusion-positive patients received Docetaxel-based therapy (Docetaxel or Docetaxel plus RAD001)): 5 patients
